Experimental data: patent publication US20230192764A1, “NOVEL DOPAMINE PRECURSORS” (Yissum Research Development Company of the Hebrew …, priority 2018, published 2023)
“And” between values parts separate entries of the source, which are not always exact repeats. Identical values can stand only once.

Assays:
[1] = Body weight monitoring in rotenone-treated rats; assay type: in vivo, Sprague Dawley rats; conditions: for Weight: individual rat, listed as SD
Protocol: (§1) 1-SD (Rotenone + SD); 2 - SDA (Rotenone + SDA); 3 - Control (Rotenone); 4 -Naive. The experimental groups were comprised of 6 animals for treated groups (1-3) and 2 animals in naive group (4). Rotenone was administrated 3.0 mg/kg intraperitoneally (IP) once a day in the morning (days 1-9). SD 33 mg/kg and SDA 33 mg/kg were administrated intraperitoneally once a day in the afternoon (days 1-9).
Animals weight was measured before initiation of treatment (day 0), on days 4,7, 9 during the experiment and on termination day 11. On day 11, animals were sacrificed and brains were harvested for further histopathological analysis.
(§2) IP administration: Rotenone was administrated to groups 1-3. Rotenone was injected intraperitoneally at a dose 3.0 mg/kg once a day in the morning (days 1-9). SD and SDA was administrated both at a dose of 33 mg/kg and were injected intraperitoneally once a day in the afternoon (days 1-9). Group number 4 was untreated, and remained as a naive group.

JNK phosphorylation = test: AuF-induced phosphorylation of JNK in SH-SY5Y cells, western blot; assay type: cell-based, human
Protocol: SH-SY5Y cells were treated with 10 µM AuF with or without SD-444. Phosphorylation was determined by western blot analysis. The amount of each band was quantitated by densitometry and plotted with a linear regression program normalized to total JNK.
(§3) In the assay, twenty to thirty micrograms of protein samples were loaded on 10-12% SDS-PAGE gels. The proteins were then transferred electrophoretically to nitrocellulose (Whatman, Germany). The blots were blocked by incubation for 1 h at RT in TBS-T (25 mM Tris-HCl pH 7.4, 0.9% NaCl and 0.02% Tween-20) with 4% Difco skim milk (BD, USA), and incubated over-night at 4° C. with the primary antibody: p-p38^MAPK (Thr180/Tyr182), rabbit mAb; p38, rabbit Ab.
In the assay, twenty to thirty micrograms of protein samples were loaded on 10-12% SDS-PAGE gels. The proteins were then transferred electrophoretically to nitrocellulose (Whatman, Germany). The blots were blocked by incubation for 1h at RT in TBS-T (25 mM Tris-HCl pH 7.4, 0.9% NaCl and 0.02% Tween-20) with 4% Difco skim milk (BD, USA), and incubated over-night at 4° C. with the primary antibody: p-JNK^MAPK, and β-catenin.

p38MAPK phosphorylation = test: AuF-induced phosphorylation of p38MAPK in SH-SY5Y cells, western blot; assay type: cell-based, human
Protocol: Cells were treated with 10 µM AuF with or without SD-444. Phosphorylation was determined by western blot analysis. The amount of each band was quantitated by densitometry and plotted with a linear regression program normalized with β catenin (b-cat).
as §3

[2] = tested on: Rotenone -induced model of Parkinson's disease (PD) in rats; test: Rat beam walk test, rotenone model; assay type: in vivo, Sprague Dawley rats; conditions: for beam end time: individual rat, listed as SD
Protocol: as §1
(§4) Rearing behavior, rotarod and beam walk tests were performed before initiation of treatment (day 0) as well as on days 4, 8 and 10 of the experiment.
as §2
Animals were gently placed on 1 m long narrow aluminum beam facing one of the ends and allowed to walk to the end of the beam.

[3] = tested on: Rotenone -induced model of Parkinson's disease (PD) in rats; test: Rotarod behavior assay, rotenone model; assay type: in vivo, Sprague Dawley rats; conditions: for R.R (rotarod): individual rat, listed as SD
Protocol: as §1, §4, §2
The test was used to evaluate motor coordination and balance. Apparatus was set to accelerate from 4 to 40 rpm in 300 s, and animals from same cage are placed in separate lanes on rod initially rotating at 4 rpm.

[4] = tested on: Rotenone -induced model of Parkinson's disease (PD) in rats; test: Rat rearing behavior (cylinder) test, rotenone model; assay type: in vivo, Sprague Dawley rats; conditions: for Cylinder rise and touch (number of rears in 2 min): individual rat, listed as SD
Protocol: as §1, §4, §2
Animals were placed in a clear glass cylinder (40 cm high and 20 cm diameter) and number of rears in 2 min was observed. Rear was considered as animals raised their hands above the shoulder and made contact with the wall of cylinder with their forelimb.

[5] = tested on: human neuroblastoma cells (SH-SY5Y); test: Viability of SH-SY5Y cells after auranofin (AuF) challenge, methylene blue staining; assay type: cell-based; conditions: SH-SY5Y pre-treated with 5 µM AuF 30 min, washed, compound added, viability 24 h later
Protocol: Viability of cells pre-treated with 5 µM AuF for 30 min, washed and later exposed to increasing concentrations of SD-444, was determined 24 h later.
A) The anti-apoptotic activity of SD-444 was tested on human neuronal cells SH-SY5Y. The cells were challenged by auranofin (AuF) that induces cellular stress by selectively blocking the thioredoxin reductase activity.
SH-SY5Y cells were plated on 96-well plates and treated with AuF in different concentrations for 30 min. Then the cells were washed with PBS and treated as indicated. Twenty-four hours later, the cells were fixed with glutaraldehyde in final concentration of 0.5% for 10 min. Cells were washed 3 times with DDW dried overnight, and washed once with borate buffer (0.1 M, pH 8.5). The fixed cells were stained with 200 µl of 1% methylene blue dissolved in borate buffer for 1 h. After extensive washing and drying, the color was extracted with 200 µl of 0.1 M HCl for 1 h at 37° C. and absorbance was read in spectrophotometer at 630 nm.

[6] = average n=6, day 0 (before treatment)
[7] = day 0 (before treatment), rotenone 3 mg/kg + compound 33 mg/kg IP
[8] = rats, rotenone 3.0 mg/kg IP + compound 33 mg/kg IP, days 1-9

Structure (SMILES): CC(=O)NC(CS)C(=O)NC(Cc1cccc(O)c1O)C(=O)NC(CS)C(N)=O (stereo not shown) [SD-444, Acetyle-Cys-2,3 dihydroxyphenylalanin-Cys- amide]
- Weight, group average [1, 6]: 304.83 gr
- Weight, group average ([1]; average n=6, day 4): 299.83 gr
- Weight, group average ([1]; average n=6, day 7): 294.17 gr
- Weight, group average ([1]; average n=6, day 9): 290.17 gr
- Weight, group average ([1]; average n=6, day 11): 283.17 gr
- Weight [1, 7]: 300 gr (2×) and 307 gr and 294 gr and 315 gr and 313 gr
- Weight ([1]; day 4, rotenone 3 mg/kg + compound 33 mg/kg IP): 299 gr (2×) and 296 gr and 290 gr and 310 gr and 305 gr
- Weight ([1]; day 7, rotenone 3 mg/kg + compound 33 mg/kg IP): 298 gr and 281 gr and 286 gr and 305 gr and 294 gr and 301 gr
- Weight ([1]; day 9, rotenone 3 mg/kg + compound 33 mg/kg IP): 295 gr and 285 gr and 280 gr and 298 gr and 286 gr and 297 gr
- Weight ([1]; day 11, rotenone 3 mg/kg + compound 33 mg/kg IP): 290 gr (2×) and 278 gr and 284 gr and 283 gr and 274 gr
- concentration at which significant reduction in JNK activation is seen (JNK phosphorylation; 10 µM AuF, western blot): 10 µM
- JNK phosphorylation (AuF-triggered) (JNK phosphorylation; summary statement): inhibit
- concentration at which significant reduction in p38 activation is seen (p38MAPK phosphorylation; 10 µM AuF, western blot): 30 µM
- p38 phosphorylation (AuF-triggered) (p38MAPK phosphorylation; summary statement): inhibit
- beam end time, group average [2, 6]: 11.33 s
- beam end time, group average ([2]; average n=6, day 4): 20.17 s
- beam end time, group average ([2]; average n=6, day 8): 22.00 s
- beam end time, group average ([2]; average n=6, day 10): 22.67 s
- beam end time [2, 7]: 10 sec (2×) and 19 sec and 5 sec and 8 sec and 16 sec
- beam end time ([2]; day 4): 31 s and 13 s and 15 s and 6 s and 38 s and 18 s
- beam end time ([2]; day 8): 23 s and 22 s and 18 s and 16 s and 21 s and 32 s
- beam end time ([2]; day 10): 43 s and 23 s and 17 s and 12 s and 27 s and 14 s
- Walk-beam test, reversal of rotenone induced imbalance [2, 8]: very effective
- R.R (rotarod), group average [3, 6]: 283.33 s
- R.R (rotarod), group average ([3]; average n=6, day 4): 275.00 s
- R.R (rotarod), group average ([3]; average n=6, day 8): 256.67 s
- R.R (rotarod), group average ([3]; average n=6, day 10): 240.50 s
- R.R (rotarod) [3, 7]: 274 s and 280 s and 288 s and 300 s and 291 s and 267 s
- R.R (rotarod) ([3]; day 4): 280 sec and 268 sec and 300 sec (2×) and 247 sec and 255 sec
- R.R (rotarod) ([3]; day 8): 249 s and 251 s and 282 s and 267 s and 254 s and 237 s
- R.R (rotarod) ([3]; day 10): 248 s and 255 s and 258 s and 266 s and 224 s and 192 s
- rotarod test, motor dysregulation mediated by rotenone [3, 8]: significantly reversed
- Cylinder rise and touch, group average [4, 6]: 12.33
- Cylinder rise and touch, group average ([4]; average n=6, day 4): 14.00
- Cylinder rise and touch, group average ([4]; average n=6, day 8): 12.33
- Cylinder rise and touch, group average ([4]; average n=6, day 10): 13.00
- Cylinder rise and touch (number of rears in 2 min) [4, 7]: 13 (3×) and 8 and 18 and 9
- Cylinder rise and touch (number of rears in 2 min) ([4]; day 4): 22 and 9 and 12 and 13 (2×) and 15
- Cylinder rise and touch (number of rears in 2 min) ([4]; day 8): 9 and 10 (2×) and 18 and 15 and 12
- Cylinder rise and touch (number of rears in 2 min) ([4]; day 10): 16 and 13 and 17 and 9 and 15 and 8
- Cylinder test, maintaining locomotor activity in Rotenone-treated rats [4, 8]: very effective
- neuronal cell-viability after AuF [5]: partially restored
- neuronal cell-viability after AuF ([5]; listed as SD): increase viability
